Test results published in ChEMBL document CHEMBL5154658, “Discovery of quinazoline derivatives as novel small-molecule inhibitors targeting the programmed cell death-1/programmed cell death-ligand 1 (PD-1/PD-L1) interaction” (Eur J Med Chem, 2022).

What was measured:
[1] = target: T1, Programmed cell death protein 1/Programmed cell death 1 ligand 1 (Homo sapiens, UniProt Q15116+Q9NZQ7); assay: Inhibition of Tag2-PD-1/Tag1-PD-L1 (unknown origin) protein-protein interaction incubated for 15 mins by HTRF assay; type: protein-complex assay
T1 sequence (Q15116 whole entry): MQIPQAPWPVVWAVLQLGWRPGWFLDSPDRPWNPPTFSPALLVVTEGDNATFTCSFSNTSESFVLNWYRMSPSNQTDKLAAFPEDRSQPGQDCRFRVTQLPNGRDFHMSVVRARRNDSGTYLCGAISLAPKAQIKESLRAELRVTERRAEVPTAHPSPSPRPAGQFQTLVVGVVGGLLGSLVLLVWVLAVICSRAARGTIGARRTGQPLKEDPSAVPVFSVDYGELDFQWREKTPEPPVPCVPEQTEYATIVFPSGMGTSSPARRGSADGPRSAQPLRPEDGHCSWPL
T1 sequence (Q9NZQ7 whole entry): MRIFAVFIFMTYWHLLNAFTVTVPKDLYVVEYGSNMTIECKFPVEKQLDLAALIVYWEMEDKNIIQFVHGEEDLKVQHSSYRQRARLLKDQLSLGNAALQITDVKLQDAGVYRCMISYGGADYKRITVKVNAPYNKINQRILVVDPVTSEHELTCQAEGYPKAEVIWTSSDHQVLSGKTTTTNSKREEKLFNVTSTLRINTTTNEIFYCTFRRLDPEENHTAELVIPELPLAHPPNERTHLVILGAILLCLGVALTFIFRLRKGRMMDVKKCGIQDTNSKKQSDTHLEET

[2] = Cytotoxicity against human PBMC cells assessed as reduction in cell growth incubated for 72 hrs by CCK8 assay; type: toxicity, cell-based
[3] = target: Programmed cell death 1 ligand 1 (Homo sapiens) (UniProt Q9NZQ7); assay: Binding affinity to human PD-L1 assessed as change in melting temperature at 50 uM by thermal shift based DSF assay
Programmed cell death 1 ligand 1 (Homo sapiens), sequence (Q9NZQ7 whole entry): as above

[4] = Cytotoxicity against human PBMC cells assessed as reduction in cell growth at 0.003 to 2.22 uM incubated for 72 hrs by CCK8 assay; type: toxicity, cell-based; conditions: dose 0.003-2.22 µM
[5] = target: T1, Programmed cell death protein 1/Programmed cell death 1 ligand 1; assay: Inhibition of PD-1/PD-L1 interaction in CHO cells expressing PD-Ll/TCR cocultured with human Jurkat cells expressing PD-1 assessed as T-cell activation by measuring maximum relative luminescence intensity value at 10 uM incubated for 6 hrs by luciferase reporter gene assay; type: cell-based
[6] = target: Programmed cell death 1 ligand 1 (Homo sapiens) (UniProt Q9NZQ7); assay: Binding affinity to human PD-L1 assessed as change in melting temperature at 20 uM by thermal shift based DSF assay
[7] = target: Programmed cell death 1 ligand 1 (Homo sapiens) (UniProt Q9NZQ7); assay: Binding affinity to human PD-L1 assessed as change in melting temperature at 10 uM by thermal shift based DSF assay
[8] = target: T1, Programmed cell death protein 1/Programmed cell death 1 ligand 1; assay: Inhibition of PD-1/PD-L1 interaction in human CD3+ T-cells co-cultured with Hep3B cells expressing OS8/hPD-L1 assessed as increase in IFN-gamma secretion measured after 72 hrs by ELISA; conditions: dose 0.082-2.222 µM, DDE = dose-dependent effect
[9] = Cytotoxicity against human PBMC cells assessed as reduction in cell growth at >2.22 uM incubated for 72 hrs by CCK8 assay; type: toxicity, cell-based
[10] = target: T1, Programmed cell death protein 1/Programmed cell death 1 ligand 1; assay: Inhibition of PD-1/PD-L1 interaction in human CD3+ T-cells co-cultured with Hep3B cells expressing OS8/hPD-L1 assessed as increase in IFN-gamma secretion at 2.22 uM measured after 72 hrs by ELISA; parameters: scale not given: the % may be the effect or the level left
[11] = target: T1, Programmed cell death protein 1/Programmed cell death 1 ligand 1; assay: Inhibition of PD-1/PD-L1 (unknown origin) interaction; type: protein-complex assay
[12] = target: T1, Programmed cell death protein 1/Programmed cell death 1 ligand 1; assay: Inhibition of C-terminal-Fc-tagged human recombinant PD-1 (25 to 167 residues)/C-terminal-His-tagged recombinant human PD-L1 (19 to 238 residues) interaction incubated for 40 mins by HTRF assay; type: protein-complex assay

N#Cc1cccc(COc2cc(Oc3ncnc4c(-c5ccc6c(c5)OCCO6)cccc34)c(Cl)cc2CNC(CO)CO)c1
IC50 [1]: 31.1 nM

CC(=O)NCCNCc1cc(Cl)c(Oc2ncnc3c(-c4ccc5c(c4)OCCO5)cccc23)cc1OCc1cncc(C#N)c1
IC50 [1]: 96 nM

N#Cc1cccc(COc2cc(Oc3ncnc4c(-c5ccc6c(c5)OCCO6)cccc34)c(Cl)cc2CN2CCCC[C@H]2C(=O)O)c1
IC50 [1]: > 500 nM

CC(C)(NCc1cc(Cl)c(Oc2ncnc3c(-c4ccccc4)cccc23)cc1OCc1cccc(C#N)c1)C(=O)O
IC50 [1]: 150 nM

N#Cc1cccc(COc2cc(Oc3ncnc4c(-c5ccccc5)cccc34)c(Cl)cc2CN2CCCC[C@H]2C(=O)O)c1
IC50 [1]: > 500 nM

CC(CO)(CO)NCc1cc(Cl)c(Oc2ncnc3c(-c4ccc5c(c4)OCCO5)cccc23)cc1OCc1cncc(C#N)c1
IC50 at 72 h [2]: 12400 nM
ΔTm [3]: 3.25 °C
Activity [4]: Non-Toxic
RLU [5]: 3120
ΔTm [6]: 3.2 °C
IC50 [1]: 1.57 nM
ΔTm [7]: 2.35 °C
inhibition [8]: Dde
Activity [9]: Toxic
Activity [10]: 820%

N#Cc1cncc(COc2cc(Oc3ncnc4c(-c5ccc6c(c5)OCCO6)cccc34)c(Cl)cc2CNCCO)c1
IC50 [1]: 12.2 nM

CC(C)OC(=O)[C@H](CO)NCc1cc(Cl)c(OCc2cccc(-c3ccc4c(c3)OCCO4)c2Br)cc1OCc1cccnc1
IC50 [11]: 10 nM

N#Cc1cccc(COc2cc(Oc3ncnc4c(-c5ccccc5)cccc34)c(Cl)cc2CN2CCCC[C@@H]2C(=O)O)c1
IC50 [1]: > 500 nM

N#Cc1cncc(COc2cc(Oc3ncnc4c(-c5ccccc5)cccc34)c(Cl)cc2CNCCO)c1
IC50 [1]: 171 nM

CC(CO)(CO)NCc1cc(Cl)c(Oc2ncnc3c(-c4ccccc4)cccc23)cc1OCc1cccc(C#N)c1
IC50 [1]: 22.9 nM

CC(=O)NCCNCc1cc(Cl)c(Oc2ncnc3c(-c4ccccc4)cccc23)cc1OCc1cncc(C#N)c1
IC50 [1]: 187 nM

CC(CO)(CO)NCc1cc(Cl)c(Oc2ncnc3c(-c4ccccc4)cccc23)cc1OCc1cncc(C#N)c1
IC50 [1]: 32.5 nM

CC(=O)NCCNCc1cc(Cl)c(Oc2ncnc3c(-c4ccc5c(c4)OCCO5)cccc23)cc1OCc1cccc(C#N)c1
IC50 [1]: > 500 nM

CC(CO)(CO)NCc1cc(Cl)c(Oc2ncnc3c(-c4ccc5c(c4)OCCO5)cccc23)cc1OCc1cccc(C#N)c1
IC50 [1]: 18.8 nM

N#Cc1cncc(COc2cc(Oc3ncnc4c(-c5ccc6c(c5)OCCO6)cccc34)c(Cl)cc2CNC(CO)CO)c1
IC50 at 72 h [2]: 5310 nM
Activity [4]: Non-Toxic
RLU [5]: 3370
IC50 [1]: 5.37 nM
inhibition [8]: Dde
Activity [9]: Toxic
Activity [10]: 654%

N#Cc1cncc(COc2cc(Oc3ncnc4c(-c5ccccc5)cccc34)c(Cl)cc2CNC(CO)CO)c1
IC50 [1]: 57.6 nM

N#Cc1cccc(COc2cc(Oc3ncnc4c(-c5ccc6c(c5)OCCO6)cccc34)c(Cl)cc2CNCCO)c1
IC50 [1]: 22.4 nM

CC(=O)NCCNCc1cc(Cl)c(Oc2ncnc3c(-c4ccccc4)cccc23)cc1OCc1cccc(C#N)c1
IC50 [1]: > 500 nM

Cc1c(-c2ccccc2)cccc1-c1nc2cc(CNCCO)ccc2o1
IC50 [12]: ≤ 10 nM

N#Cc1cccc(COc2cc(Oc3ncnc4c(-c5ccc6c(c5)OCCO6)cccc34)c(Cl)cc2CN2CCCC[C@@H]2C(=O)O)c1
IC50 [1]: 411 nM

N#Cc1cccc(COc2cc(Oc3ncnc4c(-c5ccccc5)cccc34)c(Cl)cc2CNC(CO)CO)c1
IC50 [1]: 24.2 nM

CC(C)(NCc1cc(Cl)c(Oc2ncnc3c(-c4ccc5c(c4)OCCO5)cccc23)cc1OCc1cccc(C#N)c1)C(=O)O
IC50 [1]: 88.6 nM

N#Cc1cccc(COc2cc(Oc3ncnc4c(-c5ccccc5)cccc34)c(Cl)cc2CNCCO)c1
IC50 [1]: 78.5 nM
